For orientation: IC50 means the midpoint of a concentration-inhibition curve. For orientation: Kd means a measure of binding affinity in units of concentration. For orientation: inhibition means the percentage by which the read-out fell short of the control. Low readings indicate little suppression, high ones strong suppression.

The source of these data is EP3057949B1, “SECONDARY ALCOHOL QUINOLINYL MODULATORS OF ROR GAMMA T” (Janssen Pharmaceutica NV, priority 2013, dated 2015).

The target of assay [1] is T1, human RORγt LBD (Homo sapiens, UniProt P51449).
T1 construct: expressed in transfected cells; host or cells: HEK293T
T1 sequence (P51449 258-518): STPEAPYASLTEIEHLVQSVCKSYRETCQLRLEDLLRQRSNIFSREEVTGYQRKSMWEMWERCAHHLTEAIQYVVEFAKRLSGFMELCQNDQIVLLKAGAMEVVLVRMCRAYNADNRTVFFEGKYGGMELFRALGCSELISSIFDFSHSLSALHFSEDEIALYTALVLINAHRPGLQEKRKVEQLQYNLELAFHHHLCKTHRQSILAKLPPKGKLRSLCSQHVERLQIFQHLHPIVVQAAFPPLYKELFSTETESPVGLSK
Nature of the assay: RORγt (LBD) Reporter Assay (GAL4 luciferase, HEK293T cells). In kind it is cell-based. The conditions noted are these: for RORγt (LBD) Reporter Assay, % inhibition @ 6 µM / inhibition at 6 µM: 6 µM compound; for IC50: compounds for 24 hours; for inhibition at 6 µM: HEK-293T. A digest of the protocol: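 HEK293T cells transiently co-transfected with GAL4 DBD–human RORγt LBD (pBIND, with renilla luciferase control) and GAL4-responsive firefly luciferase reporter, plated in phenol-red free DMEM with 5% lipid-reduced FCS. Compound exposure 24 h; firefly/renilla luminescence ratio plotted against compound concentration.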
In general terms: Reporter assays use an easily measured gene product as a stand-in for the process of interest.

Assay [2] relates to IL-17 production by CD4 T cells. Nature of the assay: Human Th17 Assay (IL-17 production by CD4 T cells). The conditions noted are these: IL-17 in supernatant after 3 days, Th17 differentiation conditions. In kind it is cell-based. An excerpt: The human Thl7 assay tests the effect of RORyt modulatory compounds on IL-17 production by CD4 T cells under conditions which favor Th17 differentiation.
Total CD4^+ T cells were isolated from the peripheral blood mononuclear cells (PBMC) of healthy donors using a CD4^+ T cell isolation kit II, following the manufacturer's instructions (Miltenyi Biotec). Cells were resuspended in a medium of RPMI-1640 supplemented with 10% fetal bovine serum, penicillin, streptomycin, […], and β-mercaptoethanol and were added to 96-well plates at 1.5x10^5 per 100 µL per well. 50 µL of compound at titrated concentrations in DMSO were added into each well at final DMSO concentration at 0.2%. Cells were incubated for 1 hour, then 50 µL of Th17 cell differentiation medium was added to each well. The final concentrations of antibodies and cytokines (R&D Systems) in differentiation medium were: 3x10^6/mL anti-CD3/CD28 beads (prepared using human T cell activation/expansion kit, Miltenyi Biotec), 10 µg/mL anti-IL4, 10 µg/mL anti-IFNγ, 10 ng/mL IL1β, 10 ng/mL IL23, 50 ng/mL IL6, 3 ng/mL TGFβ and 20 U/mL IL2. Cells were cultured at 37 °C and 5% CO2 for 3 days. Supernatants were collected and the accumulated IL-17 in culture was measured by using MULTI-SPOT® Cytokine Plate following manufacture's instruction (Meso Scale Discovery). The plate was read using Sector Imager 6000, and IL-17 concentration was extrapolated from the standard curve. The IC50s were determined by GraphPad.

Assay [3] has as its target T2, human RORγt ligand binding domain (RORγt LBD) (Homo sapiens, UniProt P51449).
T2 construct: His-tag (N); TurboTEV protease cleavage site (ENLYFQG) (N); made in house; host or cells: E. coli (pHIS1, modified pET vector)
T2 sequence (P51449 258-518): T1 sequence (P51449 258-518)
Briefly: ThermoFluor® Assay (RORγt thermal shift binding). To be noted: 0.065 mg/mL RORγt, 60 µM 1,8-ANS, pH 7.0; estimated from concentration response curves. The essentials: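 Thermal shift of 0.065 mg/mL RORγt with 60 µM 1,8-ANS in 100 mM Hepes pH 7.0, 10 mM NaCl, 2.5 mM GSH, 0.002% Tween-20, heated at 1 °C/min; fluorescence at 500 nm. KD estimated from concentration-response of ΔTm.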

In the case of `Cc1ncc(C(O)c2ccc3nc(N4CCC4)c(Cc4ccc(C(F)(F)F)cc4)c(Cl)c3c2)n1C` (single isomer, unassigned) [Example 22c, {2-Azetidin-1-yl-4-chloro-3-[4-(trifluoromethyl)benzyl]quinolin-6-yl}(1,2-dimethyl-1H-imidazol-5-yl)methanol], in assay [1], the “RORγt (LBD) Reporter Assay, % inhibition @ 6 µM” value (shortened to “RORγt … % inhibition @ 6 µM”) came out at 96% and the half-maximal inhibitory concentration (IC50) was about 0.4 µM. For the same molecule, the IC50 in assay [2] stood at 0.0029 µM. For the same molecule, in assay [3], the Kd is 0.043 µM.

`Cc1ccc(C(O)c2ccc3nc(N4CCC4)c(Cc4ccc(C(F)(F)F)cc4)c(Cl)c3c2)c(C)n1` (single isomer, unassigned) [Example 23c, {2-Azetidin-1-yl-4-chloro-3-[4-(trifluoromethyl)benzyl]quinolin-6-yl}(2,6-dimethylpyridin-3-yl)methanol]: in assay [1], the “RORγt … % inhibition @ 6 µM” value is 99% and inhibition was half-maximal at 0.28 µM (IC50). In assay [2], this molecule displayed a 50% inhibitory concentration (IC50) of 0.48 µM. Besides, the Kd in assay [3] is 0.2 µM.

Regarding `Cc1ccc(C(O)c2ccc3nc(N4CCC4)c(Cc4ccc(C(F)(F)F)cc4)c(Cl)c3c2)c(C)n1` (single isomer, unassigned) [Example 23b, {2-Azetidin-1-yl-4-chloro-3-[4-(trifluoromethyl)benzyl]quinolin-6-yl}(2,6-dimethylpyridin-3-yl)methanol], the inhibition at 6 µM in assay [1] was found to be 98%. Moreover, the IC50 was determined as 0.22 µM in assay [1] and 0.38 µM in assay [2] (Homo sapiens, CD4+ T, 72 h). Also, the dissociation constant (Kd) in assay [3] is 0.11 µM.

In assay [1], `COc1nc2ccc(C(O)c3ccc(C)nc3C)cc2c(Cl)c1Cc1ccc(C(F)(F)F)cc1` (single isomer, unassigned) [Example 14b, (4-Chloro-2-methoxy-3-(4-(trifluoromethyl)benzyl)quinolin-6-yl)(2,6-dimethylpyridin-3-yl)methanol] showed an inhibition at 6 µM of 97% and an IC50 of 0.12 µM. In assay [2] (Homo sapiens, CD4+ T, 72 h), half-maximal inhibition (IC50) was put at 0.17 µM. Further, the Kd in assay [3] was 0.13 µM.

In assay [1], `COc1nc2ccc(C(O)c3cnnn3C)cc2c(Cl)c1Cc1ccc(C(F)(F)F)cc1` (single isomer, unassigned) [Example 17b, (4-Chloro-2-methoxy-3-(4-(trifluoromethyl)benzyl)quinolin-6-yl)(1-methyl-1H-1,2,3-triazol-5-yl)methanol] returned an inhibition at 6 µM of 96% and an IC50 of 0.24 µM. The molecule further showed an IC50 in assay [2] of 0.44 µM. For the same molecule, the equilibrium dissociation constant (Kd) in assay [3] was 0.081 µM.

Turning to `COc1nc2ccc(C(O)c3cnnn3C)cc2c(Cl)c1Cc1ccc(C(F)(F)F)cc1` (single isomer, unassigned) [Example 17c, (4-Chloro-2-methoxy-3-(4-(trifluoromethyl)benzyl)quinolin-6-yl)(1-methyl-1H-1,2,3-triazol-5-yl)methanol], in assay [1], the “RORγt … % inhibition @ 6 µM” value came to 97% and the IC50 came to 0.21 µM. Further, in assay [2], half-maximal inhibition (IC50) was put at 0.14 µM. The equilibrium dissociation constant (Kd) in assay [3] is 0.13 µM.

For the molecule `Cc1ncc(C(O)c2ccc3nc(N4CCC4)c(Cc4ccc(-n5cccn5)cc4)c(Cl)c3c2)n1C` (single isomer, unassigned) [Example 21c, {2-Azetidin-1-yl-4-chloro-3-[4-(1H-pyrazol-1-yl)benzyl]quinolin-6-yl}(1,2-dimethyl-1H-imidazol-5-yl)methanol], in assay [1], the “RORγt … % inhibition @ 6 µM” value came to 92% and the IC50 turned out to be 0.45 µM. For the same molecule, in assay [2] (Homo sapiens, CD4+ T, 72 h), the half-inhibitory concentration (IC50) stood at 2.6 µM. Also, the dissociation constant (Kd) in assay [3] was 0.19 µM.

As to `COc1nc2ccc(C(O)c3cncn3C)cc2c(Cl)c1Cc1ccc(C(F)(F)F)cc1` (single isomer, unassigned) [Example 18c, (4-Chloro-2-methoxy-3-(4-(trifluoromethyl)benzyl)quinolin-6-yl)(1-methyl-1H-imidazol-5-yl)methanol], in assay [1], the “RORγt … % inhibition @ 6 µM” value is listed as 96% and the half-inhibitory concentration (IC50) is 0.32 µM. The molecule also registered an IC50 in assay [2] (Homo sapiens, CD4+ T, 72 h) of 0.65 µM. Moreover, the dissociation constant (Kd) in assay [3] is 0.26 µM.
